Here are results for 19 compounds from patent US12440496B2, “Natriuretic peptide receptor a agonists useful for the treatment of cardiometabolic diseases, kidney disease and diabetes” (Merck Sharp & Dohme LLC, priority 2019, dated 2025).

SMILES strings stand for the structures. Where a name gives a salt, the structure may show the parent alone.

The target of the experiment is T1, hNPRA (Homo sapiens, UniProt P16066).
T1 construct: expressed in transfected cells
T1 sequence (P16066 33-1061): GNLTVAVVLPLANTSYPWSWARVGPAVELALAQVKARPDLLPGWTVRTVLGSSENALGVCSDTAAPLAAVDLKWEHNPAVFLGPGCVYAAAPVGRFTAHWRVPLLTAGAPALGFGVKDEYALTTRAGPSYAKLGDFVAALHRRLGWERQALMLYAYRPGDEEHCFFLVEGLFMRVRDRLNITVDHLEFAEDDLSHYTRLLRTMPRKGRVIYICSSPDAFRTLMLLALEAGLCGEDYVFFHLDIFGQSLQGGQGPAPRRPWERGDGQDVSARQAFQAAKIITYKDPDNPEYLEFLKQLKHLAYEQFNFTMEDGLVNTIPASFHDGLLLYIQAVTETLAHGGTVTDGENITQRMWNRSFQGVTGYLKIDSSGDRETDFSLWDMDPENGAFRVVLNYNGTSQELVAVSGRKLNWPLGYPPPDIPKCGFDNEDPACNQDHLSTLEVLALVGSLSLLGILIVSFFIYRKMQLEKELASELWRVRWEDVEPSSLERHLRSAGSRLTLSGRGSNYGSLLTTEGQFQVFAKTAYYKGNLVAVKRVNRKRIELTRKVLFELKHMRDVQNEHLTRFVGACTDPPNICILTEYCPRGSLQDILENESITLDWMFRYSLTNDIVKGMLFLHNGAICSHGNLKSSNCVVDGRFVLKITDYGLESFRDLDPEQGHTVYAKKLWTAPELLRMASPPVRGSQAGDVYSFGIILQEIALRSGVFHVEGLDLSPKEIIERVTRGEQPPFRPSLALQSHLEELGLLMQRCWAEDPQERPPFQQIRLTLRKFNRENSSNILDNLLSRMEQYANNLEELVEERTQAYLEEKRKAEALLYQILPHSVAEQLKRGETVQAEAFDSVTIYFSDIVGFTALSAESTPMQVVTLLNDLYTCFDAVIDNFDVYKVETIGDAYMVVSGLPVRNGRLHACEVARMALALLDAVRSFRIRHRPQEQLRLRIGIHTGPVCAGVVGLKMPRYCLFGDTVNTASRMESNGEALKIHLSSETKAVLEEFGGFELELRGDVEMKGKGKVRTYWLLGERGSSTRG
The experiment in a line: NPRA Functional Cell Assay (cGMP HTRF, NPRA HEK JumpIn stable cells). In kind it is cell-based. The conditions noted are these: cGMP production, 1 hour at 37° C., 10-point dose response. The essentials: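 cGMP HTRF read-out after 1 hour compound treatment at 37° C. of human NPRA-expressing HEK JumpIn cells, 1500 cells/well, in buffer with phosphodiesterase inhibitors IBMX and RO20 (100 uM each). Signal converted to [cGMP] by calibration curve; EC50s fitted by 4-parameter logistic; 50 nM h-ANP as positive response.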
Background: TR-FRET usually uses a lanthanide donor and a delayed reading to cut background.
As a reminder, the EC50 is the concentration that produces a half-maximal response. Compound `CC(C)(C)[C@H]1CCc2nc3sc(C(=O)N[C@H](CCN4CCOCC4)c4ccc(C(=O)N[C@H]5CNC[C@@H]5O)cc4)cc3cc2C1` (racemic) [Example 72] displayed an EC50 of 987 nM.
In turn, `CC(C)(C)[C@H]1CCc2nc3sc(C(=O)N[C@H](CCN4CCC(O)CC4)c4ccc(-c5ccc(=O)[nH]c5)cc4)nc3cc2C1` (racemic) [Example 73, rac-(7S)-7-tert-butyl-N-[rac-(1R)-3-(4-hydroxy-1-piperidyl)-1-[4-(6-oxo-1H-pyridin-3-yl)phenyl]propyl]-5,6,7,8-tetrahydrothiazolo[5,4-b]quinoline-2-carboxamide] gave an EC50 of 269 nM.
As for `CC(C)(C)[C@H]1CCc2nc3sc(C(=O)N[C@H](CCN4CCC(CO)C4)c4ccc(-c5ccc(=O)[nH]c5)cc4)nc3cc2C1` (mixture of isomers) [Example 74, rac-(7S)-7-tert-butyl-N-[rac-(1R)-3-[3-(hydroxymethyl)pyrrolidin-1-yl]-1-[4-(6-oxo-1H-pyridin-3-yl)phenyl]propyl]-5,6,7,8-tetrahydrothiazolo[5,4-b]quinoline-2-carboxamide], the figure is 328 nM; as for `CC(C)(C)[C@H]1CCc2nc3sc(C(=O)N[C@H](CCNC4CCOCC4)c4ccc(-c5ccc(=O)[nH]c5)cc4)nc3cc2C1` (racemic) [Example 75, rac-(7S)-7-tert-butyl-N-[rac-(1R)-1-[4-(6-oxo-1H-pyridin-3-yl)phenyl]-3-(tetrahydropyran-4-ylamino)propyl]-5,6,7,8-tetrahydrothiazolo[5,4-b]quinoline-2-carboxamide], 634 nM; as for `CN(C)CC[C@@H](NC(=O)c1nc2cc3c(nc2s1)CC[C@H](C(C)(C)C)C3)c1ccc(-c2ccc(=O)[nH]c2)cc1` (racemic) [Example 76, rac-(7S)-7-tert-butyl-N-[rac-(1R)-3-(dimethylamino)-1-[4-(6-oxo-1H-pyridin-3-yl)phenyl]propyl]-5,6,7,8-tetrahydrothiazolo[5,4-b]quinoline-2-carboxamide], 665 nM.
Consider `CC1(C)CN(CC[C@@H](NC(=O)c2nc3cc4c(nc3s2)CC[C@H](C(C)(C)C)C4)c2ccc(-c3ccc(=O)[nH]c3)cc2)C1` (racemic) [Example 77, rac-(7S)-7-tert-butyl-N-[rac-(1R)-3-(3,3-dimethylazetidin-1-yl)-1-[4-(6-oxo-1H-pyridin-3-yl)phenyl]propyl]-5,6,7,8-tetrahydrothiazolo[5,4-b]quinoline-2-carboxamide], for which it took 681 nM to reach a half-maximal effect (EC50).
The compound `CC(C)(C)[C@H]1CCc2nc3sc(C(=O)N[C@H](CCN4CCC(O)C4)c4ccc(-c5ccc(=O)[nH]c5)cc4)nc3cc2C1` (mixture of isomers) [Example 78, rac-(7S)-7-tert-butyl-N-[rac-(1R)-3-(3-hydroxypyrrolidin-1-yl)-1-[4-(6-oxo-1H-pyridin-3-yl)phenyl]propyl]-5,6,7,8-tetrahydrothiazolo[5,4-b]quinoline-2-carboxamide] had an EC50 of 692 nM.
On to `CC(C)(C)[C@H]1CCc2nc3sc(C(=O)N[C@H](CCN4CCC(O)CC4)c4ccc(-c5ccc(=O)[nH]c5)cc4)nc3cc2C1` (racemic) [Example 79, rac-(7S)-7-tert-butyl-N-[rac-(1R)-3-(4-hydroxypiperidin-1-ium-1-yl)-1-[4-(6-oxo-1H-pyridin-3-yl)phenyl]propyl]-5,6,7,8-tetrahydrothiazolo[5,4-b]quinoline-2-carboxamide; formate], for which the EC50 amounted to 270 nM.
For `CC(C)(C)[C@H]1CCc2nc3sc(C(=O)N[C@H](CCN4CCC(O)CC4)c4ccc(-c5cn[nH]c5)cc4)nc3cc2C1` (racemic) [Example 80, rac-(7S)-7-tert-butyl-N-[rac-(1R)-3-(4-hydroxypiperidin-1-ium-1-yl)-1-[4-(1H-pyrazol-4-yl)phenyl]propyl]-5,6,7,8-tetrahydrothiazolo[5,4-b]quinoline-2-carboxamide; formate], a half-maximal effect (EC50) was put at 753 nM.
The compound `Cn1nccc1-c1ccc([C@@H](CCN2CCC(O)CC2)NC(=O)c2nc3cc4c(nc3s2)CC[C@H](C(C)(C)C)C4)cc1` (racemic) [Example 81, rac-(7S)-7-tert-butyl-N-[rac-(1R)-3-(4-hydroxypiperidin-1-ium-1-yl)-1-[4-(2-methylpyrazol-3-yl)phenyl]propyl]-5,6,7,8-tetrahydrothiazolo[5,4-b]quinoline-2-carboxamide; formate] returned an EC50 of 914 nM.
Regarding `CC(C)(C)[C@H]1CCc2nc3sc(C(=O)N[C@H](CCN4CCC(O)CC4)c4ccc(-n5ccnc5)cc4)nc3cc2C1` (racemic) [Example 83, rac-(7S)-7-tert-butyl-N-[rac-(1R)-3-(4-hydroxy-piperidin-1-ium-1-yl)-1-(4-imidazol-1-ylphenyl)propyl]-5,6,7,8-tetrahydro-thiazolo[5,4-b] quinoline-2-carboxamide; 2,2,2-trifluoroacetate], the midpoint of the response, the EC50, lay at 681 nM.
As for `CC(C)(C)[C@H]1CCc2nc3sc(C(=O)N[C@H](CCN4CCC(O)CC4)c4ccc(N5CCOC5=O)cc4)nc3cc2C1` (racemic) [Example 85], the figure is 1020 nM; as for `CN(C)CC[C@@H](NC(=O)c1nc2cc3c(nc2s1)CC[C@H](C(C)(C)C)C3)c1cccc(C(=O)NC2CN(C)C2)c1` (racemic) [Example 86, rac-(7S)-7-tert-butyl-N-[rac-(1R)-3-(dimethyl-amino)-1-[3-[(1-methylazetidin-3-yl)carbamoyl]phenyl]propyl]-5,6,7,8-tetrahydrothiazolo[5,4-b] quinoline-2-carboxamide], 183 nM; as for `CN(C)CC[C@@H](NC(=O)c1nc2cc3c(nc2s1)CC[C@H](C(C)(C)C)C3)c1cccc(C(=O)N[C@H]2CCN(C)C2)c1` (racemic) [Example 87, rac-(7S)-7-tert-butyl-N-[rac-(1R)-3-(dimethyl-amino)-1-[3-[rac-(3S)-1-methylpyrrolidin-3-yl]carbamoyl]phenyl]propyl]-5,6,7,8-tetrahydrothiazolo[5,4-b] quinoline-2-carboxamide], 207 nM.
`CN(C)CC[C@@H](NC(=O)c1nc2cc3c(nc2s1)CC[C@H](C(C)(C)C)C3)c1cccc(C(=O)NCC2CCN(C)C2)c1` (mixture of isomers) [Example 88, rac-(7S)-7-tert-butyl-N-[rac-(1R)-3-(dimethylamino)-1-[3-[(1-methylpyrrolidin-3-yl)methylcarbamoyl]phenyl]propyl]-5,6,7,8-tetrahydrothiazolo[5,4-b] quinoline-2-carboxamide] displayed an EC50 of 230 nM.
Take `CN(C)CC[C@@H](NC(=O)c1nc2cc3c(nc2s1)CC[C@H](C(C)(C)C)C3)c1cccc(C(=O)N[C@H]2CCNC2)c1` (racemic) [Example 89, rac-(7S)-7-tert-butyl-N-[rac-(1R)-3-(dimethylamino)-1-[3-[rac-(3S)-pyrrolidin-3-yl]carbamoyl]phenyl] propyl]-5,6,7,8-tetrahydrothiazolo[5,4-b] quinoline-2-carboxamide]: a half-maximal response (EC50) required 230 nM.
Turning to `CN(C)CC[C@@H](NC(=O)c1nc2cc3c(nc2s1)CC[C@H](C(C)(C)C)C3)c1cccc(C(=O)N[C@@H]2CNC[C@H]2O)c1` (racemic) [Example 90, rac-(7S)-7-tert-butyl-N-[rac-(1R)-3-(dimethylamino)-1-[3-[[rac-(3R,4R)-4-hydroxypyrrolidin-3-yl]carbamoyl]phenyl]propyl]-5,6,7,8-tetrahydrothiazolo[5,4-b] quinoline-2-carboxamide], the EC50 was determined as 271 nM.
`CN(C)CC[C@@H](NC(=O)c1nc2cc3c(nc2s1)CC[C@H](C(C)(C)C)C3)c1cccc(C(=O)N2CC3(CNC3)C2)c1` (racemic) [Example 91, rac-(7S)-7-tert-butyl-N-[rac-(1R)-1-[3-(2,6-diazaspiro[3.3]heptane-2-carbonyl)phenyl]-3-(dimethylamino)propyl]-5,6,7,8-tetrahydrothiazolo [5,4-b]quinoline-2-carboxamide] showed an EC50 of 292 nM.
Then `CN(C)CC[C@@H](NC(=O)c1nc2cc3c(nc2s1)CC[C@H](C(C)(C)C)C3)c1cccc(C(=O)NCCN)c1` (racemic) [Example 92, rac-(7S)-7-tert-butyl-N-[rac-(1R)-1-[3-(2-aminoethylcarbamoyl)phenyl]-3-(dimethyl-amino)propyl]-5,6,7,8-tetrahydrothiazolo[5,4-b] quinoline-2-carboxamide], with 348 nM.
